From PubChem BioAssay (NCI)
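Following 48 hours of exposure in 96-well plates, responses at five concentrations were used to interpolate endpoints linearly. At the GI50, growth is halved. TGI denotes the concentration required for complete inhibition of growth.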

Columns and labels:
Test in all cases: growth of human tumour cells (NCI), 48 h
OVCAR-5 ovarian = tested on: OVCAR-5 ovarian
CAKI-1 renal = tested on: CAKI-1 renal
SK-OV-3 ovarian = tested on: SK-OV-3 ovarian
SNB-75 CNS = tested on: SNB-75 CNS
MALME-3M melanoma = tested on: MALME-3M melanoma
LOX IMVI melanoma = tested on: LOX IMVI melanoma
T-47D breast = tested on: T-47D breast
A549 NSCLC = tested on: A549 NSCLC
SW-620 colon = tested on: SW-620 colon
SK-MEL-2 melanoma = tested on: SK-MEL-2 melanoma
UACC-257 melanoma = tested on: UACC-257 melanoma
HS 578T breast = tested on: HS 578T breast
HCT-15 colon = tested on: HCT-15 colon
SR leukemia = tested on: SR leukemia
BT-549 breast = tested on: BT-549 breast
NCI-H226 lung = tested on: NCI-H226 lung
IGROV1 ovarian = tested on: IGROV1 ovarian
SF-268 CNS = tested on: SF-268 CNS
SF-295 CNS = tested on: SF-295 CNS
SK-MEL-28 melanoma = tested on: SK-MEL-28 melanoma
UO-31 renal = tested on: UO-31 renal
MOLT-4 leukemia = tested on: MOLT-4 leukemia
OVCAR-8 ovarian = tested on: OVCAR-8 ovarian
OVCAR-4 ovarian = tested on: OVCAR-4 ovarian
A498 renal = tested on: A498 renal
CCRF-CEM leukemia = tested on: CCRF-CEM leukemia
NCI-H522 lung = tested on: NCI-H522 lung
HCT-116 colon = tested on: HCT-116 colon
SN12C renal = tested on: SN12C renal
KM12 colon = tested on: KM12 colon
K-562 leukemia = tested on: K-562 leukemia
SF-539 CNS = tested on: SF-539 CNS
RXF 393 renal = tested on: RXF 393 renal
HL-60(TB) leukemia = tested on: HL-60(TB) leukemia
RPMI-8226 leukemia = tested on: RPMI-8226 leukemia
DU-145 prostate = tested on: DU-145 prostate
NCI-H460 lung = tested on: NCI-H460 lung
UACC-62 melanoma = tested on: UACC-62 melanoma
MCF7 breast = tested on: MCF7 breast
MDA-MB-231 breast = tested on: MDA-MB-231 breast
M14 melanoma = tested on: M14 melanoma
HCC-2998 colon = tested on: HCC-2998 colon
U251 CNS = tested on: U251 CNS
OVCAR-3 ovarian = tested on: OVCAR-3 ovarian
SNB-19 CNS = tested on: SNB-19 CNS
NCI/ADR-RES ovarian = tested on: NCI/ADR-RES ovarian
SK-MEL-5 melanoma = tested on: SK-MEL-5 melanoma
NCI-H23 lung = tested on: NCI-H23 lung
HOP-62 NSCLC = tested on: HOP-62 NSCLC
COLO 205 colon = tested on: COLO 205 colon
HT29 colon = tested on: HT29 colon
PC-3 prostate = tested on: PC-3 prostate
ACHN renal = tested on: ACHN renal
786-0 renal = tested on: 786-0 renal
MDA-MB-435 = tested on: MDA-MB-435

Work on `COc1cc(/C=C/C(=O)c2ccc(Cl)cc2)ccc1OS(=O)(=O)c1ccc(C)cc1` yielded a GI50 (OVCAR-5 ovarian) of 16.7 µM, a TGI (OVCAR-5 ovarian) of 33.2 µM and a GI50 (CAKI-1 renal) of 11.1 µM. It also gave a TGI (CAKI-1 renal) of 44.4 µM, a GI50 (SK-OV-3 ovarian) of 30.1 µM and a TGI (SK-OV-3 ovarian) of over 100 µM. It also gave a GI50 (SNB-75 CNS) of 31.6 µM, a TGI (SNB-75 CNS) of over 100 µM and a GI50 (MALME-3M melanoma) of 13.1 µM. It also gave a TGI (MALME-3M melanoma) of 33.6 µM, a GI50 (LOX IMVI melanoma) of 1.93 µM and a TGI (LOX IMVI melanoma) of 3.67 µM. For the same compound, the GI50 (T-47D breast) was 9.27 µM, the TGI (T-47D breast) was 28.6 µM and the GI50 (A549 NSCLC) was 18.4 µM. The TGI (A549 NSCLC) was over 100 µM, the GI50 (SW-620 colon) was 2.21 µM and the TGI (SW-620 colon) was 6.01 µM. It also gave a GI50 (SK-MEL-2 melanoma) of 12.3 µM, a TGI (SK-MEL-2 melanoma) of 28.8 µM and a GI50 (UACC-257 melanoma) of 14 µM. The TGI (UACC-257 melanoma) was 36.3 µM, the GI50 (HS 578T breast) was 3.99 µM and the TGI (HS 578T breast) was over 100 µM. It also gave a GI50 (HCT-15 colon) of 1.74 µM, a TGI (HCT-15 colon) of 3.81 µM and a GI50 (SR leukemia) of 1.9 µM. For the same compound, the TGI (SR leukemia) was 6.56 µM, the GI50 (BT-549 breast) was 5.64 µM and the TGI (BT-549 breast) was 18.7 µM. It also gave a GI50 (NCI-H226 lung) of 12.7 µM, a TGI (NCI-H226 lung) of 27.9 µM and a GI50 (IGROV1 ovarian) of 14.5 µM. For the same compound, the TGI (IGROV1 ovarian) was 41.7 µM, the GI50 (SF-268 CNS) was 7.17 µM and the TGI (SF-268 CNS) was 34 µM. The GI50 (SF-295 CNS) was 9.27 µM, the TGI (SF-295 CNS) was 26.2 µM and the GI50 (SK-MEL-28 melanoma) was 18.3 µM. For the same compound, the TGI (SK-MEL-28 melanoma) was 47.5 µM, the GI50 (UO-31 renal) was 6.95 µM and the TGI (UO-31 renal) was 21.1 µM. For the same compound, the GI50 (MOLT-4 leukemia) was 2.76 µM, the TGI (MOLT-4 leukemia) was 7.74 µM and the GI50 (OVCAR-8 ovarian) was 3.23 µM. The TGI (OVCAR-8 ovarian) was 16 µM, the GI50 (OVCAR-4 ovarian) was 12.8 µM and the TGI (OVCAR-4 ovarian) was 80.1 µM. For the same compound, the GI50 (A498 renal) was 28.8 µM, the TGI (A498 renal) was over 100 µM and the GI50 (CCRF-CEM leukemia) was 2.46 µM. For the same compound, the TGI (CCRF-CEM leukemia) was 7.19 µM, the GI50 (NCI-H522 lung) was 2.93 µM and the TGI (NCI-H522 lung) was 12.2 µM. The GI50 (HCT-116 colon) was 1.76 µM, the TGI (HCT-116 colon) was 3.71 µM and the GI50 (SN12C renal) was 10 µM. For the same compound, the TGI (SN12C renal) was 34.8 µM, the GI50 (KM12 colon) was 3.63 µM and the TGI (KM12 colon) was 13.8 µM. For the same compound, the GI50 (K-562 leukemia) was 2.87 µM, the TGI (K-562 leukemia) was 11.3 µM and the GI50 (SF-539 CNS) was 11.2 µM. The TGI (SF-539 CNS) was 24 µM, the GI50 (RXF 393 renal) was 13.2 µM and the TGI (RXF 393 renal) was 29.5 µM. It also gave a GI50 (HL-60(TB) leukemia) of 3.29 µM, a TGI (HL-60(TB) leukemia) of 14.8 µM and a GI50 (RPMI-8226 leukemia) of 2.1 µM. For the same compound, the TGI (RPMI-8226 leukemia) was 4.77 µM, the GI50 (DU-145 prostate) was 16.4 µM and the TGI (DU-145 prostate) was 45.2 µM. For the same compound, the GI50 (NCI-H460 lung) was 17.3 µM, the TGI (NCI-H460 lung) was 72.4 µM and the GI50 (UACC-62 melanoma) was 4.93 µM. For the same compound, the TGI (UACC-62 melanoma) was 20.3 µM, the GI50 (MCF7 breast) was 2.56 µM and the TGI (MCF7 breast) was 25.6 µM. The GI50 (MDA-MB-231 breast) was 9.02 µM, the TGI (MDA-MB-231 breast) was 28 µM and the GI50 (M14 melanoma) was 6.35 µM. For the same compound, the TGI (M14 melanoma) was 23.6 µM, the GI50 (HCC-2998 colon) was 12.4 µM and the TGI (HCC-2998 colon) was 26.7 µM. The GI50 (U251 CNS) was 2.18 µM, the TGI (U251 CNS) was 5.38 µM and the GI50 (OVCAR-3 ovarian) was 3.57 µM. It also gave a TGI (OVCAR-3 ovarian) of 12.6 µM, a GI50 (SNB-19 CNS) of 9.53 µM and a TGI (SNB-19 CNS) of 23.2 µM. It also gave a GI50 (NCI/ADR-RES ovarian) of 9.38 µM, a TGI (NCI/ADR-RES ovarian) of 37.7 µM and a GI50 (SK-MEL-5 melanoma) of 12.4 µM. It also gave a TGI (SK-MEL-5 melanoma) of 25.1 µM, a GI50 (NCI-H23 lung) of 13.3 µM and a TGI (NCI-H23 lung) of 43.6 µM. The GI50 (HOP-62 NSCLC) was 30 µM, the TGI (HOP-62 NSCLC) was 92 µM and the GI50 (COLO 205 colon) was 12.3 µM. For the same compound, the TGI (COLO 205 colon) was 39.7 µM, the GI50 (HT29 colon) was 2.15 µM and the TGI (HT29 colon) was 4.73 µM. It also gave a GI50 (PC-3 prostate) of 3.6 µM, a TGI (PC-3 prostate) of 15.5 µM and a GI50 (ACHN renal) of 9.68 µM. The TGI (ACHN renal) was 22.2 µM, the GI50 (786-0 renal) was 10.7 µM and the TGI (786-0 renal) was 24.6 µM. The GI50 (MDA-MB-435) was 2.74 µM and the TGI (MDA-MB-435) was 8.56 µM.
